Results reported in patent US20230416249A1, “N-[2-({4-[3-(ANILINO)-4-OXO-4,5,6,7-TETRAHYDRO-1H-PYRROLO[3,2-C]PYRIDIN-2-YL]PYRIDIN-3-YL)OXY)ETHYL]PROP-2-ENAMIDE DERIVATIVES AND SIMILAR COMPOUNDS AS EGFR INHIBITORS FOR THE TREATMENT OF CANCER” (Bayer Aktiengesellschaft, priority 2020, published 2023).

Experiments:
Ba/F3-EGFR-insSVD cells = Ba/F3-EGFR-insSVD cells (Homo sapiens, UniProt P00533, DUP768-770, cells depend on it); test: Ba/F3 cell survival assay (Cell Titer-Glo), EGFR-insSVD; type: cell-based; conditions: 48 h, without IL-3, 10 ng/mL EGF; read-out: BA/F3 (insSVD) IC50
Experimental: (§1) 293T cells from ATCC were transfected with pBABEpuro expression constructs for WT EGFR or EGFR-insSVD, or EGFR-insSVD T790M, and pCL-Eco packaging vector using Fugene-6 transfection reagent from Promega. Plates were incubated at 37° C. for 48 h. Retrovirus was harvested by filtering the media supernatant through a 0.45 μm filter.
(§2) Ba/F3 cells purchased from DSMZ were grown in RPMI+10% FBS+10 ng/mL IL-3 and infected with filtered retroviral supernatant at a 1:2 dilution. Polybrene was added to a concentration of 8 μg/mL, plates were spun for 90 min, and incubated for 16 h at 37° C. 2 μg/mL puromycin was added to the infected cells 24 h after infection and cells were continually grown in the presence of puromycin and 10 ng/mL IL-3. Following stably expressing Ba/F3 cell lines were generated: Ba/F3-EGFR-WT, Ba/F3-EGFR-insSVD, Ba/F3-EGFR-insSVD T790M, (Ba/F3—vector-control).
(§3) For cell survival assays, Ba/F3 cells were grown to a density of 1-2 million cells per mL, spun down and resuspended in media without IL-3, and replated at a concentration 200,000-500,000 cells per mL. The cells ectopically expressing WT EGFR, EGFR-insSVD, or EGFR-insSVD T790M were plated with 10 ng/mL Millipore Culture grade EGF. The cells ectopically expressing pBABEpuro empty vector were plated with 10 ng/mL IL-3.
(§4) 2 days later, cells were plated in 50 μL in a 384 well plate at a concentration of 4000 cells per well for cells assayed in the absence of IL-3 and 2000 cells per well for cells assayed in the presence of IL-3. 100 nL of compound was added to each well using a 100 nL pin head, and plates were incubated at 37° C. for 48 h.
(§5) Cell viability was measured by adding 20 μL of Cell Titer-Glo Luminescent Cell Viability Reagent diluted 1:3 in PBS. Plates were sealed with Perkin Elmer Top-Seal, inverted several times to mix, and immediately centrifuged at 1000 rpm for 2 min. Plates were incubated in low light conditions for 8-10 min and luminescence was measured.

[1] = biological target: Ba/F3-EGFR-E746_A750del T790M cells (Homo sapiens, UniProt P00533, DEL746-750/T790M, cells depend on it); test: Ba/F3 cell survival assay (Cell Titer-Glo), EGFR-E746_A750del T790M; type: cell-based; conditions: 48 h, without IL-3, 10 ng/mL EGF; read-out: BA/F3 (E746_A750del T790M) IC50
Ba/F3-EGFR-E746_A750del T790M cells, sequence (P00533 with tags, fused parts or gaps DEL746-750/T790M): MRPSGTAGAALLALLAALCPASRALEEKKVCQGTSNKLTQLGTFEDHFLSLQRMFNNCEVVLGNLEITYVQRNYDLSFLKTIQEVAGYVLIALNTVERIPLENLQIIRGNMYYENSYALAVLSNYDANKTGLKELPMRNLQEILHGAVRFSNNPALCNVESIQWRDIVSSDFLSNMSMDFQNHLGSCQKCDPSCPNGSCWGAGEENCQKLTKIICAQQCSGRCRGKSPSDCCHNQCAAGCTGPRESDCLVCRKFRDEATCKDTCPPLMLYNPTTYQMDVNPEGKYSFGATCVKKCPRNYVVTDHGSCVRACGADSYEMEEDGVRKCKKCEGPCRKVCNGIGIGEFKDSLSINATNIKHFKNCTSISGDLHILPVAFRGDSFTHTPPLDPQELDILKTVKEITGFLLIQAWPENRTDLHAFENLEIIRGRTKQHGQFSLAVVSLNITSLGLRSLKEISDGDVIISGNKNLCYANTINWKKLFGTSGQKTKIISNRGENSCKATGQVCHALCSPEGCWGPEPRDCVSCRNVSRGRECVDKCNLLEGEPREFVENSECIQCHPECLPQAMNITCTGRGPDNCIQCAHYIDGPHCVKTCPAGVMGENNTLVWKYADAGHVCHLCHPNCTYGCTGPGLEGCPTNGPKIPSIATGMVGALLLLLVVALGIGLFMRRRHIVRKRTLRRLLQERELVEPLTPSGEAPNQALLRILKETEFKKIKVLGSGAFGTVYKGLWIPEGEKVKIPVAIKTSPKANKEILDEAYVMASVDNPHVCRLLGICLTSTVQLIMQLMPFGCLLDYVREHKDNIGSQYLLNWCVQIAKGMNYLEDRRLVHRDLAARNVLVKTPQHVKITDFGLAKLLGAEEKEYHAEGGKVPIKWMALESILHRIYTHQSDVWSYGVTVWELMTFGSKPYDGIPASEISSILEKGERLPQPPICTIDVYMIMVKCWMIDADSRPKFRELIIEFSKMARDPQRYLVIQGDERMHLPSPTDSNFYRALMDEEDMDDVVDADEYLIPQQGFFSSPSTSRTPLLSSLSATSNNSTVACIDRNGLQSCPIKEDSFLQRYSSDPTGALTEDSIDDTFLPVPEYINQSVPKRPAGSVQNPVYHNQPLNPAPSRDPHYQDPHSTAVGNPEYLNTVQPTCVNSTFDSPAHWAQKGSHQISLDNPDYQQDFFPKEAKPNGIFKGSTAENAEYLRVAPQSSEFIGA
Experimental: as §1, with “EGFR-L858R, EGFR-E746_A750del, EGFR-L858R T790M,” for “WT EGFR”, “EGFR-E746_A750del” for “EGFR-insSVD, or EGFR-insSVD”
as §2, with “Ba/F3-EGFR-L858R, Ba/F3-EGFR-E746_A750del, Ba/F3-EGFR-L858R” for “Ba/F3-EGFR-WT, Ba/F3-EGFR-insSVD, Ba/F3-EGFR-insSVD”, “or Ba/F3-EGFR-E746_A750del T790M.” for “(Ba/F3—vector-control).”
as §3, with “EGFR-L858R, EGFR-E746_A750del, EGFR-L858R T790M,” for “WT EGFR, EGFR-insSVD,”, “EGFR-E746_A750del” for “EGFR-insSVD”
as §4, §5

Ba/F3-EGFR-WT cells = Ba/F3-EGFR-WT cells (Homo sapiens, UniProt P00533); test: Ba/F3 cell survival assay (Cell Titer-Glo), WT EGFR; type: cell-based; conditions: 48 h, without IL-3, 10 ng/mL EGF; read-out: BA/F3 (wild type) IC50
Ba/F3-EGFR-WT cells, sequence (P00533 whole entry, change not shown): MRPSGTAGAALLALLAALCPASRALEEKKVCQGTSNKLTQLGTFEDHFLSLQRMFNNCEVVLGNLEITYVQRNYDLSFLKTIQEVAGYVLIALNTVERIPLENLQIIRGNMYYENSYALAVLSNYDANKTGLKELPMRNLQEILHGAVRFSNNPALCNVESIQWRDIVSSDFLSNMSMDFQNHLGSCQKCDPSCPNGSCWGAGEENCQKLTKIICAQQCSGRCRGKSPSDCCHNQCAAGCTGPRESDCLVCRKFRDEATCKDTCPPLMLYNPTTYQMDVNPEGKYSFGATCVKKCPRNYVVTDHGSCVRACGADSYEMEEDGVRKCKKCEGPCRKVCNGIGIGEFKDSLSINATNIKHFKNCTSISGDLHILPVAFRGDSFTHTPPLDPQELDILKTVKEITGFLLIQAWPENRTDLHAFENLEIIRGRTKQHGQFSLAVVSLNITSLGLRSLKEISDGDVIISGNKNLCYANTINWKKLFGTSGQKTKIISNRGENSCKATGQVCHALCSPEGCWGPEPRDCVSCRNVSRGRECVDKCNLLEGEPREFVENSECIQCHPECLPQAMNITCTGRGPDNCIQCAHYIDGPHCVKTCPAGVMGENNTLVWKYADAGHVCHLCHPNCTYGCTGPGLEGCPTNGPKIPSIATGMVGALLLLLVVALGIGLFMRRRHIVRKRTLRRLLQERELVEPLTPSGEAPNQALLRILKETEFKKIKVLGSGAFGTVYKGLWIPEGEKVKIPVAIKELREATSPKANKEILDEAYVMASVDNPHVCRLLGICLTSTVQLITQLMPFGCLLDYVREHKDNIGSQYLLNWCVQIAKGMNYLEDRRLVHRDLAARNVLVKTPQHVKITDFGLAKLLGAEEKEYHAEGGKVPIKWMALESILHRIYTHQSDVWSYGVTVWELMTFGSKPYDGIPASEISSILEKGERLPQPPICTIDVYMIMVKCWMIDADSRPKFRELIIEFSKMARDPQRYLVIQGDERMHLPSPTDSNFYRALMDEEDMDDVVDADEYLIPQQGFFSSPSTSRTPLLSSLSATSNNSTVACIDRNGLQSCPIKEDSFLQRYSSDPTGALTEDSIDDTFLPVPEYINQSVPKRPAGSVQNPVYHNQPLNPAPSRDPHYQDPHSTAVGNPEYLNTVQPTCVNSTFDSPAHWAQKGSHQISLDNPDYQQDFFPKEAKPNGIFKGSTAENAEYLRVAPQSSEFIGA
Experimental: as §1, §2, §3, §4, §5

[2] = biological target: T1, mutEGFR (D770_N771insSVD) (Homo sapiens, UniProt P00533, DUP768-770); test: Exon20-Mutant-EGFR(D770_N771insSVD) kinase assay (TR-FRET); type: biochemical; conditions: GST-EGFR ins SVD, 2 mM ATP, 15 min pre-incubation
T1 construct: GST-EGFR #3 (SVD between D770 and N771); made in house; host or cells: Sf9 insect cells (baculovirus)
T1 sequence (P00533 with tags, fused parts or gaps DUP768-770): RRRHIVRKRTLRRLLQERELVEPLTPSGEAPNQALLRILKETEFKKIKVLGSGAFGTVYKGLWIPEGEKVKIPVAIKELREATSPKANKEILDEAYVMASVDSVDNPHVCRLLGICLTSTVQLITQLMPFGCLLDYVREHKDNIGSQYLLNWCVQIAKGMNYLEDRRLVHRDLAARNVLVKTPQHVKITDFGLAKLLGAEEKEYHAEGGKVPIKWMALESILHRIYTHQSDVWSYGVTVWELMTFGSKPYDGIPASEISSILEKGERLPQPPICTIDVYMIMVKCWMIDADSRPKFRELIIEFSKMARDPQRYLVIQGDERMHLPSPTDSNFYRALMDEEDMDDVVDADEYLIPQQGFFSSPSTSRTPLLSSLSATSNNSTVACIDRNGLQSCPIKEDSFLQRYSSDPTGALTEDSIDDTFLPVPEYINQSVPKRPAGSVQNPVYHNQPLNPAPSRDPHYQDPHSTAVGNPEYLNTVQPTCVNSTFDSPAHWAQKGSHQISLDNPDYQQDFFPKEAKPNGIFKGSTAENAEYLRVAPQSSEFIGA
From the text: Inhibitory activity of compounds of the present invention against an Epidermal Growth Factor Receptor (EGFR) with an insertion of the amino acids sequence SVD between D770 and N771 was quantified employing the TR-FRET based kinase activity assay as described in the following paragraphs.
A recombinant fusion protein of N-terminal Glutathion-S-Transferase (GST) and a fragment of human EGFR variant (amino acids R669 to A1210 with insertion of the amino acids sequence SVD between D770 and N771 (“EGFR ins SVD”), expressed in Sf9 insect cells and purified via affinity chromatography using Glutathion Sepharose as described above, was used as a kinase. As substrate for the kinase reaction the biotinylated peptide biotin-Ahx-AEEEEYFELVAKKK (SEQ ID NO: 6) (C-terminus in amide form) was used which can be purchased e.g. form the company Biosynthan GmbH (Berlin-Buch, Germany).
For the assay 50 nl of a 100-fold concentrated solution of the test compound in DMSO was pipetted into either a black low volume 384 well microtiter plate or a black 1536 well microtiter plate (both Greiner Bio-One, Frickenhausen, Germany), 2 μl of a solution of EGFR in aqueous assay buffer [50 mM Hepes pH 7.0, 10 mM MgCl2, 1 mM dithiothreitol, 0.5 mM EGTA, 0.3 mM activated sodium ortho-vanadate, 0.005% (w/v) bovine serum albumin, 0.005% (v/v) Tween-20] were added and the mixture was incubated for 15 min at 22° C. to allow pre binding of the test compounds to the enzyme before the start of the kinase reaction. Then the kinase reaction was started by the addition of 3 μL of a solution of adenosine tri phosphate (ATP, 3.33 mM=>final conc. in the 5 μL assay volume is 2 mM) and substrate (1.67 μM=>final conc. in the 5 μL assay volume is 1 μM) in assay buffer and the resulting mixture was incubated for a reaction time of 30 min at 22° C. The concentration of EGFR was adjusted depending of the activity of the enzyme lot and was chosen appropriate to have the assay in the linear range, typical concentration was 15 pg/μl. The reaction was stopped by the addition of 3 μl of a solution of HTRF detection reagents (83.3 nM streptavidine-XL665 [Cisbio Bioassays, Codolet, France] and 1.67 nM PT66-Tb-Cryptate, a terbium-cryptate labelled anti-phospho-tyrosine antibody from Cisbio Bioassays [instead of the PT66 Tb cryptate PT66 Eu Chelate from Perkin Elmer can also be used]) in an aqueous EDTA-solution (133.3 mM EDTA, 0.2% (w/v) bovine serum albumin in 50 mM HEPES pH 7.5).
The resulting mixture was incubated 1 h at 22° C. to allow the binding of the biotinylated phosphorylated peptide to the streptavidine-XL665 and the PT66-Tb-Cryptate. Subsequently the amount of phosphorylated substrate was evaluated by measurement of the resonance energy transfer from the PT66-Tb-Cryptate to the streptavidine-XL665. Therefore, the fluorescence emissions at 620 nm and 665 nm after excitation at 337 nm were measured in a HTRF reader, e.g. a Pherastar (BMG Labtechnologies, Offenburg, Germany) or a Viewlux (Perkin-Elmer). The ratio of the emissions at 665 nm and at […] was taken as the measure for the amount of phosphorylated substrate. The data were normalised (enzyme reaction without inhibitor=0% inhibition, all other assay components but no enzyme=100% inhibition).

[3] = biological target: Ba/F3-EGFR-L858R T790M cells (Homo sapiens, UniProt P00533, T790M/L858R, cells depend on it); test: Ba/F3 cell survival assay (Cell Titer-Glo), EGFR-L858R T790M; type: cell-based; conditions: 48 h, without IL-3, 10 ng/mL EGF; read-out: BA/F3 (L858R T790M) IC50
Ba/F3-EGFR-L858R T790M cells, sequence (P00533 whole entry T790M/L858R): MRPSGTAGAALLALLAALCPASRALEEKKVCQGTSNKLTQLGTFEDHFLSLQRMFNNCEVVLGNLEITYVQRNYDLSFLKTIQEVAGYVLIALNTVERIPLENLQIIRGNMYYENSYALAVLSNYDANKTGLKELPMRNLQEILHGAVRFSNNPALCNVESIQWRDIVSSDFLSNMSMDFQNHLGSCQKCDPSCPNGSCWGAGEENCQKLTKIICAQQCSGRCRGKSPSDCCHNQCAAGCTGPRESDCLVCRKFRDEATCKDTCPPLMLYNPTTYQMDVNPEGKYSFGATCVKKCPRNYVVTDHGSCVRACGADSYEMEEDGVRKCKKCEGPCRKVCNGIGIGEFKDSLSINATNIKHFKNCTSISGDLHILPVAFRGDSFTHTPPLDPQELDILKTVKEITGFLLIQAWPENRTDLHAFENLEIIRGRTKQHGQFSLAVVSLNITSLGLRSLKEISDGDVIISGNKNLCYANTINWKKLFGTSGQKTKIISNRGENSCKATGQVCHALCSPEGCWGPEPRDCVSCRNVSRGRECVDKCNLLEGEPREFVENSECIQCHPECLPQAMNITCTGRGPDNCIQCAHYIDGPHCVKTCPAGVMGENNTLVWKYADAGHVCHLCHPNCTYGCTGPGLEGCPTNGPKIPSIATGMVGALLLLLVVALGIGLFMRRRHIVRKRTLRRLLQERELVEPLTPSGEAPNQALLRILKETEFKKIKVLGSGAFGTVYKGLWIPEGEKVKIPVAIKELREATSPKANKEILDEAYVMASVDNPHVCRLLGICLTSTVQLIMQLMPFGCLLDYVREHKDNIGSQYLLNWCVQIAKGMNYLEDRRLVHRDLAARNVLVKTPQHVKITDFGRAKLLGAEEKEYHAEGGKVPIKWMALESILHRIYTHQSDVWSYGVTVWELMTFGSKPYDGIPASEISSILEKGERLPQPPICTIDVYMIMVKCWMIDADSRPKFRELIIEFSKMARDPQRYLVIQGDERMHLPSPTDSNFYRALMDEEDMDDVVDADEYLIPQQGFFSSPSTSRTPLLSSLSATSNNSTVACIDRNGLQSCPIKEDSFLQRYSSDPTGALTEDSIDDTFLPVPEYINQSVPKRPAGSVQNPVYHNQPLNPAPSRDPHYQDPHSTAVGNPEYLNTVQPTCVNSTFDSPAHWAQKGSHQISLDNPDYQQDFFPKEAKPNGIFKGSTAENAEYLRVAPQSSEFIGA
Experimental: as §1, with “EGFR-L858R, EGFR-E746_A750del, EGFR-L858R T790M,” for “WT EGFR”, “EGFR-E746_A750del” for “EGFR-insSVD, or EGFR-insSVD”
as §2, with “Ba/F3-EGFR-L858R, Ba/F3-EGFR-E746_A750del, Ba/F3-EGFR-L858R” for “Ba/F3-EGFR-WT, Ba/F3-EGFR-insSVD, Ba/F3-EGFR-insSVD”, “or Ba/F3-EGFR-E746_A750del T790M.” for “(Ba/F3—vector-control).”
as §3, with “EGFR-L858R, EGFR-E746_A750del, EGFR-L858R T790M,” for “WT EGFR, EGFR-insSVD,”, “EGFR-E746_A750del” for “EGFR-insSVD”
as §4, §5

SMILES	GI50 (Ba/F3-EGFR-insSVD cells) [µM]	GI50 [1] [µM]	GI50 (Ba/F3-EGFR-WT cells) [µM]	IC50 [2] [µM]	GI50 [3] [µM]
COc1c(Cl)cccc1Nc1c(-c2ccncc2OCCN(C)C(=O)/C=C/CN(C)C)[nH]c2c1C(=O)NC1(CCC1)C2 [Example 10, (2E)-N-[2-({4-[3′-(3-chloro-2-methoxyanilino)-4′-oxo-1′,4′,5′,7′-tetrahydrospiro[cyclobutane-1,6′-pyrrolo[3,2-c]pyridin]-2′-yl]pyridin-3-yl}oxy)ethyl]-4-(dimethylamino)-N-methylbut-2-enamide]	0.205	0.651	1.66	0.00355	> 1
C=CC(=O)N(C)CCOc1cnccc1-c1[nH]c2c(c1Nc1cccc(Cl)c1OC)C(=O)NC1(CCC1)C2 [Example 11, N-[2-({4-[3′-(3-chloro-2-methoxyanilino)-4′-oxo-1′,4′,5′,7′-tetrahydrospiro[cyclobutane-1,6′-pyrrolo[3,2-c]pyridin]-2′-yl]pyridin-3-yl}oxy)ethyl]-N-methylprop-2-enamide]	0.0122	0.0258	0.309	0.000464	0.198
C=CC(=O)N(C)CCOc1cnccc1-c1[nH]c2c(c1Nc1cccc(Cl)c1OC)C(=O)NC(C)(C)C2 [Example 12, N-[2-({4-[3-(3-chloro-2-methoxyanilino)-6,6-dimethyl-4-oxo-4,5,6,7-tetrahydro-1H-pyrrolo[3,2-c]pyridin-2-yl]pyridin-3-yl}oxy)ethyl]-N-methylprop-2-enamide]	0.0177	0.0474	0.33	0.000583	0.276
C=CC(=O)N(C)CCOc1cnccc1-c1[nH]c2c(c1Nc1ccccc1OC(F)F)C(=O)NCC2 [Example 14, N-(2-{[4-(3-{[2-(difluoromethoxy)phenyl]amino}-4-oxo-4,5,6,7-tetrahydro-1H-pyrrolo[3,2-c]pyridin-2-yl)pyridin-3-yl]oxy}ethyl)-N-methylprop-2-enamide]	0.0354	0.0291	0.652	0.000571	0.397
